{"source": "PubChem BioAssay AID1418", "about": "(Emory University Molecular Libraries Screening Center, 2008)", "note": "The source made the active and inactive calls. How the calls were made is not given here.", "data": [{"biological_target": "Induced myeloid leukemia cell differentiation protein Mcl-1 (Homo sapiens) (UniProt Q07820)", "sequence (Q07820 whole entry, looked up)": "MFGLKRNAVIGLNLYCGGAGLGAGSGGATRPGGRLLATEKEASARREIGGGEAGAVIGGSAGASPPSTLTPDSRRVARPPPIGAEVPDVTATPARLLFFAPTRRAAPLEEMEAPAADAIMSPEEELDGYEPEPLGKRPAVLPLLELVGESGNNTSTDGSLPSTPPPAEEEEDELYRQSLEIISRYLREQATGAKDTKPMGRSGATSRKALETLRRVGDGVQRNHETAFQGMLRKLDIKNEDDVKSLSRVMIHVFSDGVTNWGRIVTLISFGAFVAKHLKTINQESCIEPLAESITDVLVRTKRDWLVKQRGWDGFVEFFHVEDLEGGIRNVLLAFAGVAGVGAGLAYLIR", "assay": "blockers of Bid binding to Mcl-1 – biochemical, TR-FRET, dose response (AID 1418)", "conditions": "Mcl-1/Bid peptide binding, TR-FRET (europium/Dy647), 2 hr", "values": [{"smiles": "CCN(CC)c1ccc(NC(=O)Cn2c(C(C)NC(=O)c3ccc(C)cc3)nc3ccccc32)cc1", "note": "(centres undefined)", "IC50": "0.9 µM"}, {"smiles": "CSc1nc(SCCO)c2sc3nc(-c4ccco4)c4c(c3c2n1)CC(C)(C)OC4", "IC50": "7.5 µM"}, {"smiles": "COc1ccc(NC(=O)Cn2nnc(-c3ccccc3NC(=O)c3ccco3)n2)cc1", "IC50": "6.22 µM"}, {"smiles": "O=[N+]([O-])c1cccc(S(=O)(=O)Nc2nc3ccccc3nc2Nc2cccc(S(=O)(=O)N3CCCCC3)c2)c1", "IC50": "inactive"}, {"smiles": "Cc1nc(NC(=O)c2ccccc2)sc1-c1csc(Nc2ccc(C(=O)O)cc2)n1", "IC50": "9.88 µM"}, {"smiles": "O=C(N/N=C/c1ccc(F)cc1)c1cc(-c2ccco2)nc2ccccc12", "IC50": "3.3 µM"}, {"smiles": "COc1cccc(CN(C(=O)/C=C/c2ccc(Cl)cc2)C2CCS(=O)(=O)C2)c1", "note": "(centres undefined)", "IC50": "> 54 µM (inactive)"}, {"smiles": "COC(=O)c1ccc(=O)c2nc3/c(=C/O)c(O)cc(=O)c3[nH]c12", "IC50": "3.23 µM"}, {"smiles": "CCOC(=O)c1c(C)oc2c1c(C(c1ccncc1)N1CCOCC1)c(O)c1ccccc12", "note": "(centres undefined)", "IC50": "0.87 µM"}, {"smiles": "CC(=O)c1ccc(NC(=O)C(C)n2c3ccccc3c3nc(=O)cc(C)n32)cc1", "note": "(centres undefined)", "IC50": "> 54 µM (inactive)"}, {"smiles": "C=CCOC(=O)/C=C/C(=O)NC(N)=O", "IC50": "> 54 µM (inactive)"}, {"smiles": "CCN1C(=O)/C(=C/c2cccs2)SC1=Nc1ccc(OC)cc1", "IC50": "> 54 µM (inactive)"}, {"smiles": "C=CCOC(=O)/C(=C/c1ccco1)NC(=O)/C=C/c1ccccc1", "IC50": "> 54 µM (inactive)"}, {"smiles": "N=C1/C(=C\\c2ccc(-c3ccc(C(=O)O)cc3)o2)C(=O)N=C2SC=C(c3ccccc3)N12", "IC50": "2.76 µM"}, {"smiles": "O=[N+]([O-])c1ccc(N/N=C/c2cn(Cc3ccc(F)cc3)c3ccccc23)nc1", "IC50": "> 54 µM (inactive)"}, {"smiles": "COc1cccc(OC)c1C(=O)Nc1ccccc1C(=O)N1CCOCC1", "IC50": "> 54 µM (inactive)"}, {"smiles": "CCOC(=O)c1[nH]cnc1C(=O)Nc1ccncc1", "IC50": "> 54 µM (inactive)"}, {"smiles": "O=C(N=Nc1c(O)[nH]c2ccc([N+](=O)[O-])cc12)c1cc(-c2ccccc2Cl)nc2ccccc12", "IC50": "0.81 µM"}, {"smiles": "CCc1nnc(NS(=O)(=O)c2ccc(NC(=S)NC(=O)/C=C/c3ccc(C(C)C)cc3)cc2)s1", "IC50": "3.99 µM"}, {"smiles": "COc1ccc(N/C=C2\\C(=O)CCc3c2oc2cc(Cl)c(O)c(Cl)c32)cc1", "IC50": "0.79 µM"}, {"smiles": "COC(=O)c1cc(OC)c(OC)cc1NCC(=O)Nc1ccc(C)cc1", "IC50": "> 54 µM (inactive)"}, {"smiles": "CC12CCC(C(=O)Nc3ccccc3-n3cccc3)(CC1=O)C2(C)C", "note": "(centres undefined)", "IC50": "> 54 µM (inactive)"}, {"smiles": "CN(C)C(=O)/C(C#N)=C\\c1cc(Br)c(Sc2ccc(Cl)cc2)o1", "IC50": "> 54 µM (inactive)"}, {"smiles": "O=C(O)CCN1C(=O)S/C(=C\\c2cccnc2)C1=O", "IC50": "> 54 µM (inactive)"}, {"smiles": "O=C(Nc1ccc2c(c1)OCCO2)NC1(C(F)(F)F)Oc2ccccc2O1", "IC50": "> 54 µM (inactive)"}, {"smiles": "Cc1ccc(-n2c(=O)c3cc4c(=O)n(-c5ccc(C)c(C)c5)c(=O)c4c(C(=O)c4ccc(C(=O)O)cc4)c3c2=O)cc1C", "IC50": "6.91 µM"}, {"smiles": "COc1ccc(NC(=O)CN2CCOCC2)cc1", "IC50": "> 54 µM (inactive)"}, {"smiles": "CC(NC(=O)NC1CCCCC1)C(c1cccs1)N1CCN(c2ccccc2)CC1", "note": "(centres undefined)", "IC50": "> 54 µM (inactive)"}, {"smiles": "Cc1nc(N)sc1-c1csc(Nc2ncccn2)n1", "IC50": "3.3 µM"}, {"smiles": "O=c1[nH]c(O)c(/C=C2/C=CC(c3cc(Cl)ccc3Cl)=N2)c(=O)[nH]1", "IC50": "1.07 µM"}, {"smiles": "O=P(O)(O)C#Cc1ccccc1", "IC50": "> 54 µM (inactive)"}, {"smiles": "CCc1ccc2c(CN(CC)Cc3nc4ccccc4c(=O)[nH]3)cc(=O)oc2c1", "IC50": "> 54 µM (inactive)"}, {"smiles": "CSc1nc(C)cc(OCC(=O)n2nc(C)cc2C)n1", "IC50": "> 54 µM (inactive)"}, {"smiles": "O=C(C1=C[C@@H](c2csc3ccccc23)C[C@@H](OCc2ccc(CO)cc2)O1)N1CCN(Cc2ccc3c(c2)OCO3)CC1", "IC50": "> 54 µM (inactive)"}, {"smiles": "Cc1nc(COC(=O)c2cc(O)c3ccccc3c2O)cs1", "IC50": "0.9 µM"}, {"smiles": "Cc1cc(C)c(S(=O)(=O)/N=C2/C=C(Sc3ncn[nH]3)C(=O)c3ccccc32)cc1C", "IC50": "1.19 µM"}, {"smiles": "O=C(N/N=C/c1ccco1)c1ccc(N2CCCC2=O)cc1", "IC50": "> 54 µM (inactive)"}, {"smiles": "O=C(CCCN1C(=O)c2ccccc2C1=O)NCCCn1ccnc1", "IC50": "> 54 µM (inactive)"}, {"smiles": "CCS(=O)(=O)NCc1ccc2c(c1)cc(C)n2C", "IC50": "> 54 µM (inactive)"}]}]}
